Values quoted from earlier work as cited in patent US8974795B2, “Controlled release formulation based on hematin anhydride crystals for the induction of an innate immune reaction” (priority 2010, dated 2015).
Where two headings read alike, the source gives them in different places.

[1] = Table 1, medium strong organic acids

Structure (SMILES)	pKa [1]	pKa
O=C(O)C(O)c1ccccc1 (racemic) [DL-Mandelic acid]	3.85	
C=CC1=C(C)c2cc3[n-]c(cc4[n-]c(cc5nc(cc1n2)C(C)=C5C=C)c(C)c4CCC(=O)O)c(CCC(=O)O)c3C.[Fe+2] [heme]		about 4.5
CC(Cl)CC(=O)O (stereo not drawn) [3-Chlorobutanoic acid]	4.05	
Cc1cc(C)cc(C(=O)O)c1 [Mesitylenic acid]	4.32	
O=C(O)CCc1ccccc1Cl [3-(2-Chlorophenyl)propanoic acid]	4.58	
O=C(O)Cc1ccccc1Cl [2-Chlorophenylacetic acid]	4.07	
O=C(O)CCc1ccc(Cl)cc1 [3-(4-Chlorophenyl)propanoic acid]	4.61	
O=C(O)Cc1ccc(Cl)cc1 [4-Chlorophenylacetic acid]	4.19	
CC(C(=O)O)c1ccccc1 (stereo not drawn) [α-Phenylpropanoic acid]	4.64	
O=C(O)C(c1ccccc1)c1ccccc1 [Diphenylacetic acid]	3.94	
O=C(O)Cc1cccc(Cl)c1 [3-Chlorophenylacetic acid]	4.14	
O=C(O)CCc1cccc(Cl)c1 [3-(3-Chlorophenyl)propanoic acid]	4.59	
